ChEMBL document CHEMBL4834424, “Targeting Chikungunya Virus Replication by Benzoannulene Inhibitors” (J Med Chem, 2021)
The source made the active and inactive calls. The calls are words filed in the database; no cut-off is given here.

How the values were obtained:
[1] = test system: West Nile virus; test: (§1) Antiviral activity against West nile virus infected in HEK293 cells assessed as reduction in virus titer in cell supernatant by measuring inhibition of plaque formation using Vero cells at 10 uM measured following infection of supernatants with Vero cells for 48 hrs pi by serial dilution plaque based methylene blue dye analysis; assay type: functional
[2] = test system: Chikungunya virus; test: Antiviral activity against CHIKV-nLuc RNA transfected NHDF cells assessed as decrease in Nano-luc signal at 20 uM pretreated 24 hrs before transfection in presence of guanosine measured after 24 hrs by Nano-Glo luciferase assay; assay type: functional, organism-based
[3] = Cytotoxicity against human NHDF cells assessed as cell viability measured after 24 hrs by Cell Titer Glo luminescent assay; assay type: cell-based; conditions: NHDF cells
[4] = Metabolic stability in human liver microsomes assessed as half life in presence of NADPH incubated up to 45 mins by LC-MS/MS analysis; assay type: ADME, Microsome
[5] = AUC in C57BL/6 mouse at 40 mg/kg, ip; assay type: ADME, organism-based; parameters: dose 40 mg/kg; conditions: in vivo
[6] = test system: Chikungunya virus; test: as §1, with “CHIKV 99659” for “West nile virus”, “Asian tiger mosquito C6/36” for “HEK293”, “and” for “at 10 uM”; assay type: functional; conditions: Chikungunya virus, 99659, C6
[7] = AUC in C57BL/6 mouse at 1 mg/kg, iv; assay type: ADME, organism-based; parameters: dose 1 mg/kg; conditions: in vivo
[8] = test system: Venezuelan equine encephalitis virus; test: Antiviral activity against Venezuelan equine encephalitis virus TC83 infected in human […] cells assessed as reduction in virus titer in cell supernatant by measuring inhibition of plaque formation using Vero cells at 10 uM measured following infection of supernatants with Vero cells for 48 hrs pi by serial dilution plaque based methylene blue dye analysis; assay type: functional, NHDF
[9] = Toxicity in CHIKV infected in C57BL/6 mouse right foot assessed as body weight change at 80 mg/kg, po pretreated 2 hrs before infection followed treated twice a day for 3 days and measured 12 hr post infection of last dose; assay type: organism-based; conditions: in vivo, 86 h
[10] = test system: Chikungunya virus; test: (§2) Antiviral activity against CHIKV infected in C57BL/6 mouse right foot assessed as reduction in site of infection at 80 mg/kg, po pretreated 2 hrs before infection followed treated twice a day for 3 days and measured 12 hr post infection of last dose by dilution plaque assay on Vero cells; assay type: functional, organism-based; conditions: time 86.0 hrs
[11] = test system: Chikungunya virus; test: as §2, with “in serum” for “in site”, “of contralateral ankles tissue” for “of infection”; assay type: functional, organism-based; conditions: time 86.0 hrs
[12] = test system: Onyong-nyong virus; test: as §1, with “O'nyong-nyong” for “West nile”, “Asian tiger mosquito C6/36” for “HEK293”, “and” for “at 10 uM”; assay type: functional
[13] = test system: Chikungunya virus; test: Antiviral activity against CHIKV infected in C57BL/6 mouse right foot assessed as reduction in serum of ipsilateral tissue at 80 mg/kg, po pretreated 2 hrs before infection followed treated twice a day for 3 days and measured 12 hr post infection of last dose by dilution plaque assay on Vero cells; assay type: functional, organism-based; conditions: time 86.0 hrs
[14] = Cmax in C57BL/6 mouse at 40 mg/kg, ip; assay type: ADME, organism-based; parameters: route intraperitoneal, dose 40 mg/kg; conditions: in vivo
[15] = test system: Chikungunya virus; test: as §1, with “CHIKV” for “West nile virus”, “human NHDF” for “HEK293”, “uM pretreated with NHDF cells followed by infected with virus incubated for 24 hrs and” for “uM”, “hrs” for “hrs pi”, “by” for “by serial dilution”; assay type: functional; conditions: time 72 hrs
[16] = test system: Chikungunya virus; test: Antiviral activity against CHIKV infected in human NHDF cells assessed as reduction in virus titer in cell supernatant by measuring inhibition of plaque formation using Vero cells pretreated with NHDF cells followed by infected with virus incubated for 24 hrs and measured following infection of supernatants with Vero cells for 48 hrs by plaque based methylene blue dye analysis; assay type: functional, organism-based
[17] = Half life in C57BL/6 mouse at 40 mg/kg, po; assay type: ADME, organism-based; conditions: in vivo
[18] = Aqueous solubility of the compound; assay type: physicochemical; conditions: aqueous; read-out: solubility
[19] = as §1, with “Ross river” for “West nile”, “Asian tiger mosquito C6/36” for “HEK293”, “and” for “at 10 uM”; assay type: functional; conditions: La Crosse virus
[20] = Octanol-aqueous buffer distribution coefficient, log D of the compound by LC-MS analysis; assay type: physicochemical
[21] = Half life in C57BL/6 mouse at 1 mg/kg, iv; assay type: ADME, organism-based; conditions: in vivo
[22] = test system: Chikungunya virus; test: as §1, with “CHIKV 37997” for “West nile virus”, “Asian tiger mosquito C6/36” for “HEK293”, “and” for “at 10 uM”; assay type: functional; conditions: Chikungunya virus, 37997, C6
[23] = test system: Una virus; test: (§3) Antiviral activity against Una virus MAC150 infected in Asian tiger mosquito C6/36 cells assessed as reduction in virus titer in cell supernatant by measuring inhibition of plaque formation using Vero cells and measured following infection of supernatants with Vero cells for 48 hrs pi by serial dilution plaque based methylene blue dye analysis; assay type: functional
[24] = test system: Venezuelan equine encephalitis virus; test: as §3, with “Venezuelan equine encephalitis” for “Una”, “TC83” for “MAC150”; assay type: functional
[25] = biological target: Dihydroorotate dehydrogenase (quinone), mitochondrial (Homo sapiens, UniProt Q02127)
[26] = Oral bioavailability in C57BL/6 mouse at 40 mg/kg; assay type: ADME, organism-based; conditions: in vivo
[27] = Bioavailability in C57BL/6 mouse at 40 mg/kg, sc; assay type: ADME, organism-based; conditions: in vivo
[28] = Cmax in C57BL/6 mouse at 40 mg/kg, sc; assay type: ADME, organism-based; parameters: route subcutaneous, dose 40 mg/kg; conditions: in vivo
[29] = Cytotoxicity against HEK293 cells at 10 uM; assay type: cell-based; conditions: human
[30] = test system: dengue virus type 2; test: as §1, with “DENV2” for “West nile virus”; assay type: functional
[31] = AUC in C57BL/6 mouse at 40 mg/kg, sc; assay type: ADME, organism-based; parameters: dose 40 mg/kg; conditions: in vivo
[32] = test system: Mayaro virus; test: as §3, with “Mayaro” for “Una”, “TRVL” for “MAC150”; assay type: functional
[33] = test system: Chikungunya virus; test: Antiviral activity against CHIKV infected in C57BL/6 mouse right foot assessed as reduction in spleen at 80 mg/kg, po pretreated 2 hrs before infection followed treated twice a day for 3 days and measured 12 hr post infection of last dose by dilution plaque assay on Vero cells; assay type: functional, organism-based; conditions: time 86.0 hrs
[34] = Half life in C57BL/6 mouse at 40 mg/kg, sc; assay type: ADME, organism-based; conditions: in vivo
[35] = test system: Chikungunya virus; test: Antiviral activity against CHIKV-nLuc RNA transfected NHDF cells assessed as decrease in Nano-luc signal at 20 uM pretreated 24 hrs before transfection in presence of uridine measured after 24 hrs by Nano-Glo luciferase assay; assay type: functional, organism-based; conditions: time 48.0 hrs
[36] = Bioavailability in C57BL/6 mouse at 40 mg/kg, ip; assay type: ADME, organism-based; conditions: in vivo
[37] = AUC in C57BL/6 mouse at 40 mg/kg, po; assay type: ADME, organism-based; parameters: dose 40 mg/kg; conditions: in vivo
[38] = test system: Chikungunya virus; assay type: functional; conditions: 181-25, C6, time 48 hrs
[39] = test system: Chikungunya virus; test: Antiviral activity against CHIKV infected in C57BL/6 mouse right foot assessed as reduction in quadriceps tissue at 80 mg/kg, po pretreated 2 hrs before infection followed treated twice a day for 3 days and measured 12 hr post infection of last dose by dilution plaque assay on Vero cells; assay type: functional, organism-based; conditions: time 86.0 hrs
[40] = Cmax in C57BL/6 mouse at 40 mg/kg, po; assay type: ADME, organism-based; parameters: route oral, dose 40 mg/kg; conditions: in vivo
[41] = Half life in C57BL/6 mouse at 40 mg/kg, ip; assay type: ADME, organism-based; conditions: in vivo

Chain of Dihydroorotate dehydrogenase (quinone), mitochondrial (Q02127 whole entry): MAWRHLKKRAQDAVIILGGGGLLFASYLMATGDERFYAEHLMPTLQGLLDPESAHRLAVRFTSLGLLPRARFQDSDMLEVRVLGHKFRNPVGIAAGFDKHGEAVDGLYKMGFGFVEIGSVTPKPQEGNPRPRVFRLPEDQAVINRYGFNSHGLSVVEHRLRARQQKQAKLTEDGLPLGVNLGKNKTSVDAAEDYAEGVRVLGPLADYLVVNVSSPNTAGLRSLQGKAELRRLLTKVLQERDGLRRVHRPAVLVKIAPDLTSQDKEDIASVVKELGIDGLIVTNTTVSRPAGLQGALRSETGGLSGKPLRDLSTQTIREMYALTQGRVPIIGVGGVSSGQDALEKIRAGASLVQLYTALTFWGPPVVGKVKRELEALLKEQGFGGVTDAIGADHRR

With `COc1cc2c(cc1C(=O)Nc1ccc(C(C)(C)C#N)cc1)CCCCC2` as the compound, how does the “log(activity)” value [1] read?
The value was 3.4.

And the Activity [2]?
The Activity was “Active”.

And the CC50 at 24 h [3]?
The CC50 at 24 h was > 30000 nM.

And the half-life [4]?
Its half-life is 132 h.

What about the AUC [5] of the same compound?
The AUC was 8570 ng·h/mL.

And the EC90 [6]?
The EC90 was 1100 nM.

What about the AUC [7] of the same compound?
The AUC was 497 ng·h/mL.

And the “log(activity)” value [8]?
Its value is 3.1.

And the Activity [9]?
The Activity was “Non-Toxic”.

What about the Activity [10] of the same compound?
Its Activity is “inactive”.

What about the Activity [11] of the same compound?
The Activity was “inactive”.

And the EC90 [12]?
Its EC90 is 890 nM.

What about the Activity [13] of the same compound?
Its Activity is “inactive”.

And the Cmax [14]?
Its Cmax is 858 ng/mL.

And the “log(activity)” value [15]?
The value was 4.5.

What about the EC50 [16] of the same compound?
Its EC50 is 270 nM.

And the half-life [17]?
Its half-life is 9.9 h.

What about the solubility [18] of the same compound?
The solubility was < 1 µM.

What about the EC90 [19] of the same compound?
Its EC90 is 850 nM.

What about the logD [20] of the same compound?
The logD was > 4.4.

What about the half-life [21] of the same compound?
The half-life was 2.02 h.

What about the EC90 [22] of the same compound?
Its EC90 is 1500 nM.

What about the EC90 [23] of the same compound?
The EC90 was 2500 nM.

What about the EC90 [24] of the same compound?
Its EC90 is 2100 nM.

What about the IC50 [25] of the same compound?
Its IC50 is 310 nM.

What about the bioavailability [26] of the same compound?
Its bioavailability is 41%.

What about the bioavailability [27] of the same compound?
Its bioavailability is 4%.

And the Cmax [28]?
Its Cmax is 90 ng/mL.

And the CC50 [29]?
The CC50 was > 30000 nM.

What about the “log(activity)” value [30] of the same compound?
Its value is 2.

What about the AUC [31] of the same compound?
The AUC was 744 ng·h/mL.

What about the EC90 [32] of the same compound?
The EC90 was 2300 nM.

What about the Activity [33] of the same compound?
Its Activity is “Active”.

What about the half-life [34] of the same compound?
Its half-life is 18.6 h.

What about the Activity [35] of the same compound?
The Activity was “inactive”.

What about the bioavailability [36] of the same compound?
The bioavailability was 43%.

What about the AUC [37] of the same compound?
The AUC was 7950 ng·h/mL.

What about the EC90 [38] of the same compound?
Its EC90 is 980 nM.

What about the Activity [39] of the same compound?
Its Activity is “Active”.

And the Cmax [40]?
Its Cmax is 642 ng/mL.

And the half-life [41]?
The half-life was 18.5 h.

Which results are given for `CC(C)(C)c1ccc(NC(=O)c2ccc3c(c2)CCCCC3)cc1`?
CC50 at 24 h [3]: > 30000 nM; log(activity) [15]: 4.2; EC50 [16]: 7000 nM; CC50 [29]: > 30000 nM
